Reference: patent US20090069384A1, “THIENOPYRROLES USEFUL IN THE TREATMENT OF INFLAMMATION” (BIOLIPOX AB, priority 2005, published 2009)

Target: T1, mPGES-1 (Homo sapiens, UniProt O14684)
T1 construct: made in house; host or cells: E. coli (membrane fraction)
T1 sequence (O14684 1-152): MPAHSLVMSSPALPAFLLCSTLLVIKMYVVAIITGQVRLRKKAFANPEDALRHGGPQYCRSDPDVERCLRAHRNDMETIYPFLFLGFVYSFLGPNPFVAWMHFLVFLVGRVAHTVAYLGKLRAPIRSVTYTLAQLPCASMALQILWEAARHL
Assay: mPGES-1 inhibition assay (conversion of PGH2 to PGE2, HPLC analysis)
Format: biochemical
Conditions: mPGES-1 expressed in E. coli, membrane fraction; room temperature; PGH2 substrate, 60 seconds
Protocol: In the assay mPGES-1 catalyses the reaction where the substrate PGH2 is converted to PGE2. mPGES-1 is expressed in E. coli and the membrane fraction is dissolved in 20 mM NaPi-buffer pH 8.0 and stored at −80° C. […] The stop solution consists of H2O/MeCN (7/3), containing FeCl2 (25 mM) and HCl (0.15 M). The assay is performed at room temperature in 96-well plates.
The following is added chronologically to each well: • 1. 100 uL mPGES-1 in KPi-buffer with glutathione. Total protein concentration: 0.02 mg/mL. • 2. 1 μL inhibitor in DMSO. Incubation of the plate at room temperature for 25 minutes. • 3. 4 μL of a 0.25 mM PGH2 solution. Incubation of the plate at room temperature for 60 seconds. • 4. 100 μL stop solution. • 180 μL per sample is analyzed with HPLC.

| SMILES | IC50 [µM] |
| --- | --- |
| Cc1ccc(-c2cc3c(s2)c(I)c(C(=O)O)n3Cc2cccc(Cl)c2)s1 [Example 4, 4-(3-Chlorobenzyl)-6-iodo-2-(5-methylthien-2-yl)thieno[3,2-b]pyrrole-5-carboxylic Acid] | 1.3 |
| CC(C)Oc1ccc(-c2cc3cc(C(=O)O)n(Cc4cccc(Cl)c4)c3s2)cc1 [Example 35, 6-(3-Chlorobenzyl)-2-(4-isopropoxyphenyl)-6H-thieno[2,3-b]pyrrole-5-carboxylic Acid] | 4.7 |
| Cc1ccc(-n2c(C(=O)O)cc3sc(-c4ccc(OC(C)C)cc4)cc32)cc1[N+](=O)[O-] [Example 28, 2-(4-Isopropoxyphenyl)-4-(4-methyl-3-nitrophenyl)thieno[3,2-b]pyrrole-5-carboxylic Acid] | 5.1 |
| CC(C)(C)c1ccc(-c2cc3c(s2)c(-c2ccc(C(C)(C)C)cc2)c(C(=O)O)n3Cc2cccc(Cl)c2)cc1 [Example 2, 2,6-Bis-(4-tert-butylphenyl)-4-(3-chlorobenzyl)thieno[3,2-b]pyrrole-5-carboxylic Acid] | 0.39 |
